In PMC9119314 (Frontiers in Pharmacology, 2022):
Where “and” joins values, the source holds several entries; their conditions need not be identical. Equal entries are not always repeated.

Key:
P. falciparum K1 = test: In vitro antiplasmodial activity, P. falciparum K1 (lactate dehydrogenase assay); type: cell-based, Plasmodium falciparum; conditions: for IC50: Plasmodium falciparum, chloroquine-resistant strain K1, 48 h, mean ± SE, read-out: Activity against P. falciparum K1, IC50
Description: P. falciparum (K1 clone) was maintained in human erythrocytes prepared from the donated blood samples (blood groups unknown, Ethical Tissue, University of Bradford), suspended in the RPMI 1640 medium as previously described ([Wright et al., 2001]), except that serum was replaced with Albumax II, [5% (^w/v)]. […] Twofold serial dilutions were made in 96-well microtiter plates in duplicate, and infected erythrocytes were added to give a final volume of 100 µL with 2.5% hematocrit and 1% parasitemia. Chloroquine diphosphate was used as a positive control, and uninfected and infected erythrocytes without compounds were included in each test. The plates were placed into a modular incubator; gassed with 93% nitrogen, 3% oxygen, and 4% carbon dioxide; and incubated at 37°C for 48 h. The parasite growth was assessed by measuring lactate dehydrogenase activity as described by [Makler et al. (1993)]. The reagent used contained the following in each mL: acetylpyridine adenine dinucleotide (APAD), 0.74 mg; lithium lactate, 19.2 mg; diaphorase, 0.1 mg; Triton X-100, 2 μL; nitroblue tetrazolium, 1 mg; and phenazine ethosulphate, 0.5 mg. Fifty microliter of this reagent was added to each well and mixed; plates were incubated for 15 min at 37°C. The optical densities were read at 550 nm using an Azure 96-well microplate reader (Azure Biosystems Inc.), and % inhibition of growth was calculated by comparison with the control values. IC50 values were determined using linear regression analysis (Microsoft Excel). A minimum of three separate determinations was carried out for each compound.

[1] = test system: P. falciparum (NF54-Mal8p1.16-GFP-Luc) late-stage gametocytes; test: microbe, parasite or virus in culture; type: cell-based, Plasmodium falciparum
Description: Gametocytes were produced as per [Reader et al. (2015]; [2021)] from P. falciparum NF54-Mal8p1.16-GFP-Luc ([Adjalley et al., 2011]), and each batch was validated for viability and functionality before use. […] Drug assays were set up on day 10 (representing late gametocytes, >90% stage IV/V gametocytes) using a 2–3% gametocytemia, 1.5% hematocrit culture. The drug pressure was for 48 h under stationary, hypoxic conditions (90% N2, 5% O2, and 5% CO2) at 37°C. Luciferase activity was determined in 30 μL parasite lysates by adding 30 μL luciferin substrate (Promega Luciferase Assay System) at room temperature and detection of resultant bioluminescence at an integration constant of 10 s with the GloMax®-Multi + Detection System with Instinct® Software. Methylene blue (5 μM) and an internal control (MMV390048, 5 μM) were routinely included as controls.

A2780/ADR cells = test: Chemosensitivity MTT assay, doxorubicin-resistant A2780/ADR; type: cell-based; conditions: Homo sapiens, 96 h, ± SE, read-out: Activity against A2780/ADR cells, IC50
Description: A modified MTT assay was used ([Shnyder et al., 2008]). Cells (2 × 10^4/ml) were inoculated into each well of a 96-well plate and incubated for 24 h at 37°C in a humidified atmosphere containing 5% CO2. Compounds were then added at a range of concentrations to each well, and the plates were then incubated for a further 96 h. After 96 h, the culture medium was removed and 200 μL of 0.5 mg ml^–1 MTT solution (Sigma) in the complete medium was added to each well. Following a further 4 h incubation, the solution was removed from each well and 150 μL of DMSO was added to solubilize the formazan crystals resulting from MTT conversion. The absorbance values for the resulting solutions were read at 540 nm on an Azure 96-well microplate reader (Azure Biosynstems Inc.), and the cell survival was calculated as the absorbance of treated cells divided by the control.

Which results are given for C[n+]1c2ccccc2cc2[n-]c3c(I)cc(I)cc3c21 [Compound 6, 7,9-diiodocryptolepine]?
IC50 (P. falciparum K1): 250 ± 40 nM; Selectivity index (SI), P. falciparum K1 with respect to Hep G cells (P. falciparum K1): 113; IC50 ([1]; Plasmodium falciparum, NF54, 48 h, read-out: Activity against late-stage gametocytes IC50): 2200 ± 20 nM; Selectivity index (SI), late-stage gametocytes with respect to Hep G cells ([1]; SI with respect to Hep G cells): 13 and 12.8; IC50 (A2780/ADR cells): 180 ± 20 nM

Which IC50 (P. falciparum K1) does the source give for C[n+]1c2ccccc2cc2[n-]c3c(Br)cc(Br)cc3c21 [Compound 4, 7,9-Dibromocryptolepine] here?
The IC50 was 440 ± 90 nM.

And the “Selectivity index (SI), P. falciparum K1 with respect to Hep G cells” value (P. falciparum K1)?
Its value is 15.4.

What about the IC50 (A2780/ADR cells) of the same molecule?
Its IC50 is 310 ± 60 nM.

C[n+]1c2ccccc2cc2[n-]c3ccc(I)cc3c21 [Compound 5, 7-iodocryptolepine] was tested. Which IC50 (P. falciparum K1) did it give?
Its IC50 is 160 ± 30 nM.

And the “Selectivity index (SI), P. falciparum K1 with respect to Hep G cells” value (P. falciparum K1)?
Its value is 41.9.

What about the IC50 (A2780/ADR cells) of the same molecule?
Its IC50 is 180 ± 10 nM.
